Patent US8318785B2, “Pharmaceutical compounds” (Orion Corporation, priority 2005, dated 2012)
pKi: −log10 of the molar value.

How the values were obtained:
[1] = target: T1, recombinant human soluble form of COMT (hS-COMT) (Homo sapiens, UniProt P21964); experiment: Determination of COMT inhibiting activity in vitro; format: biochemical; settings: tight binding inhibition constant, 25 μM SAM, substrate esculetin 10 μM, pH 7.4, 37° C.
T1 sequence (P21964 1-221 isoform P21964-2): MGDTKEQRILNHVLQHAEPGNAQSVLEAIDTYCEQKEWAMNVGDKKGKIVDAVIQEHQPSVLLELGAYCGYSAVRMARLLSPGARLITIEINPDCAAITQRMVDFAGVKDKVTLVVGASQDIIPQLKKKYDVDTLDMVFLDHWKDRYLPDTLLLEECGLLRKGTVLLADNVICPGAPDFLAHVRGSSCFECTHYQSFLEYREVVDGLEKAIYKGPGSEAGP

[2] = Determination of metabolic stability in vitro (glucuronidation); format: in vitro ADME; settings: entacapone = 1.00; human liver microsomes 0.4 mg/ml, UDPGA 5 mM, test substance 100 μM, 60 min at 37° C.; glucuronide HPLC area relative to entacapone
[3] = system: isolated rat liver mitochondria; experiment: Determination of uncoupling of oxidative phosphorylation in vitro; settings: threshold value of uncoupling (sample/Control slope ratio exceeding 2); oxygen consumption of rat liver mitochondria; tested 1-50 μM

Row | Structure (SMILES) | pKi [1] | Relative glucuronidation [2] | Uncoupling [3]
1 | CCOC(=O)c1sc2c([N+](=O)[O-])c(O)c(O)cc2c1Cl [Compound of example 5, 3-Chloro-5,6-dihydroxy-7-nitro-benzo[b]thiophene-2-carboxylic acid ethyl ester] | 8.82 |  | 
2 | O=[N+]([O-])c1c(O)c(O)cc2c(Cl)csc12 [Compound of example 7, 3-Chloro-5,6-dihydroxy-7-nitro-benzo[b]thiophene] | 8.82 |  | 
3 | O=C(c1sc2c([N+](=O)[O-])c(O)c(O)cc2c1Cl)N1CCOCC1 [Compound of example 8, (3-Chloro-5,6-dihydroxy-7-nitro-benzo[b]thiophen-2-yl)-morpholin-4-yl-methanone] | 9.22 |  | 
4 | O=C(O)c1cccc(NC(=O)c2sc3c([N+](=O)[O-])c(O)c(O)cc3c2Cl)c1 [Compound of example 12, 3-[(3-Chloro-5,6-dihydroxy-7-nitro-benzo[b]thiophene-2-carbonyl)-amino]-benzoic acid] | 9.22 | 0.03 | 
5 | O=C(O)c1ccc(NC(=O)c2sc3c([N+](=O)[O-])c(O)c(O)cc3c2Cl)cc1 [Compound of example 13, 4-[(3-Chloro-5,6-dihydroxy-7-nitro-benzo[b]thiophene-2-carbonyl)-amino]-benzoic acid] | 9.70 |  | 
6 | O=C(c1cc2cc(O)c(O)c([N+](=O)[O-])c2s1)N1CCOCC1 [Compound of example 16, (5,6-Dihydroxy-7-nitro-benzo[b]thiophen-2-yl)-morpholin-4-yl-methanone] | 9.05 | <0.01 | 
7 | O=C1OCc2c1cc(O)c(O)c2[N+](=O)[O-] [Compound of example 23, 5,6-Dihydroxy-4-nitro-3H-isobenzofuran-1-one] | 8.70 | 0.26 | 
8 | O=[N+]([O-])c1ccc(O)c([N+](=O)[O-])c1 [DNP, dinitrophenol] |  |  | 10 µM
